# Patent publication US9695155B2, “Herbicidal substituted pyrimidinyloxy benzene compounds” (E. I. DU PONT DE NEMOURS AND COMPANY, priority 2013, dated 2017)
# How the values were obtained:
# barnyardgrass [1] = test: Test C preemergence; type: in vivo, Echinochloa crus-galli
# How it was run: (§1)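 Seeds are planted in blended loam soil and sand and treated preemergence, while seedlings in a peat moss/vermiculite medium receive postemergence sprays at 2 to 18 cm height. All plants stay in the greenhouse for 13 to 15 days before visual comparison with controls on a 0–100 scale.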
# barnyardgrass [2] = test: Test A postemergence; type: in vivo, Echinochloa crus-galli; conditions: 0 to 100 scale where 0 is no effect and 100 is complete control
# How it was run: (§2)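 Compounds in non-phytotoxic solvent with surfactant applied as soil spray preemergence, or postemergence to plants 2-10 cm at one- to two-leaf stage, in loam/sand. After approximately 10 days in greenhouse, injury rated visually versus untreated controls, 0 (no effect) to 100 (complete control).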
# pigweed [3] = test: Test A postemergence; type: in vivo, Amaranthus retroflexus; conditions: 0 to 100 scale where 0 is no effect and 100 is complete control
# How it was run: as §2
# blackgrass = test: Test C postemergence; type: in vivo, Alopecurus myosuroides
# How it was run: as §1
# wheat, winter = test: Test C preemergence; type: in vivo, Triticum aestivum; conditions: preemergence
# How it was run: as §1
# large (Lg) crabgrass = test: Test C postemergence; type: in vivo, Digitaria sanguinalis
# How it was run: as §1
# waterhemp = test: Test C preemergence; type: in vivo, Amaranthus rudis; conditions: preemergence
# How it was run: as §1
# soybean = test: Test C preemergence; type: in vivo, Glycine max; conditions: preemergence
# How it was run: as §1
# morningglory = test: Test C preemergence; type: in vivo, Ipomoea coccinea; conditions: preemergence
# How it was run: as §1
# ragweed = test: Test C postemergence; type: in vivo, Ambrosia elatior
# How it was run: as §1
# pigweed [4] = test: Test A preemergence; type: in vivo, Amaranthus retroflexus; conditions: 0 to 100 scale where 0 is no effect and 100 is complete control
# How it was run: as §2
# barnyardgrass [5] = test: Test B flooded paddy test; type: in vivo, Echinochloa crus-galli; conditions: Flood, 250 g ai/ha, 0 to 100 scale where 0 is no effect and 100 is complete control
# How it was run: (§3)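 Seedlings are raised to two leaves, flooded to a depth of 3 cm and dosed by adding the compound to the floodwater. Water level is kept constant, and plants are scored visually versus controls 13–15 days later (0 = no effect, 100 = complete control).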
# rice = test: Test B flooded paddy test; type: in vivo, Oryza sativa; conditions: Flood, 250 g ai/ha, 0 to 100 scale where 0 is no effect and 100 is complete control
# How it was run: as §3
# [6] = 16 g ai/ha, postemergence, 0 is no effect, 100 is complete control
# [7] = 31 g ai/ha, postemergence, visual rating, scale 0 to 100 (0 no effect, 100 complete control), 13 to 15 days
# [8] = 125 g ai/ha, postemergence, visual rating, scale 0 to 100 (0 no effect, 100 complete control)
# [9] = Postemergence, 62 g ai/ha, scale 0 to 100 (0 no effect, 100 complete control)
# [10] = 16 g ai/ha, scale 0 to 100 (0 no effect, 100 complete control)
# [11] = 62 g ai/ha, scale 0 (no effect) to 100 (complete control)
# [12] = 125 g ai/ha, scale 0 (no effect) to 100 (complete control)
structure (smiles),measurement,setting,value
"FC(F)(F)COc1cnn(-c2ccccc2Oc2ncc(Cl)cn2)c1 [Compound 138, 5-chloro-2-[2-[4-(2,2,2-trifluoroethoxy)-1H-pyrazol-1-yl]phenoxy]pyrimidine]",pest or weed control at 16 g/ha,"barnyardgrass [1]; Echinochloa crus-galli, pre-emergence, 16 g ai/ha, preemergence, scale 0 to 100 (0 no effect, 100 complete control), read-out: Barnyardgrass plant response rating",10%
same,pest or weed control at 62 g/ha,"barnyardgrass [1]; Echinochloa crus-galli, pre-emergence, 62 g ai/ha, preemergence, scale 0 (no effect) to 100 (complete control), read-out: Barnyardgrass plant response rating",65%
same,pest or weed control at 125 g/ha,"barnyardgrass [1]; Echinochloa crus-galli, pre-emergence, 125 g ai/ha, preemergence, scale 0 (no effect) to 100 (complete control), read-out: Barnyardgrass plant response rating",95%
same,pest or weed control at 31 g/ha,"barnyardgrass [1]; Echinochloa crus-galli, pre-emergence, Preemergence, 31 g ai/ha, scale 0 to 100, 0 no effect, 100 complete control, read-out: Plant response rating, Barnyardgrass",25%
same,pest or weed control at 125 g/ha,"barnyardgrass [2]; Echinochloa crus-galli, post-emergence, 240 h, 125 g ai/ha, read-out: Barnyardgrass plant response rating",80%
same,pest or weed control at 500 g/ha,"barnyardgrass [2]; Echinochloa crus-galli, post-emergence, 240 h, 500 g ai/ha, read-out: Plant response rating, Barnyardgrass",100%
same,pest or weed control at 500 g/ha,"pigweed [3]; Amaranthus retroflexus, post-emergence, 500 g ai/ha, read-out: Plant response rating, Pigweed",100%
same,pest or weed control at 125 g/ha,"pigweed [3]; Amaranthus retroflexus, post-emergence, 240 h, 125 g ai/ha, read-out: Pigweed plant response rating",100%
same,pest or weed control at 16 g/ha,"blackgrass; Alopecurus myosuroides, post-emergence, 16 g ai/ha, postemergence, 0 is no effect, 100 is complete control, read-out: Plant response rating (0 to 100), Blackgrass",0%
same,pest or weed control at 125 g/ha,"blackgrass; Alopecurus myosuroides, post-emergence, 125 g ai/ha, postemergence, visual rating, scale 0 to 100 (0 no effect, 100 complete control), read-out: Plant response rating, Blackgrass",10%
same,pest or weed control at 31 g/ha,"blackgrass; Alopecurus myosuroides, post-emergence, Postemergence, 31 g ai/ha, scale 0 to 100 (0 no effect, 100 complete control), 13 to 15 days, read-out: Plant response rating, Blackgrass",5%
same,pest or weed control at 62 g/ha,"blackgrass; Alopecurus myosuroides, post-emergence, Postemergence, 62 g ai/ha, scale 0 to 100 (0 no effect, 100 complete control), read-out: Plant response rating, Blackgrass",5%
same,plant injury at 16 g/ha,"wheat, winter; Triticum aestivum, pre-emergence, 16 g ai/ha, scale 0 to 100 (0 no effect, 100 complete control), read-out: Wheat plant response rating",0%
same,plant injury at 62 g/ha,"wheat, winter; Triticum aestivum, pre-emergence, 62 g ai/ha, scale 0 (no effect) to 100 (complete control), read-out: Wheat plant response rating",5%
same,plant injury at 125 g/ha,"wheat, winter; Triticum aestivum, pre-emergence, 125 g ai/ha, scale 0 (no effect) to 100 (complete control), read-out: Wheat plant response rating",5%
same,pest or weed control at 16 g/ha,"large (Lg) crabgrass; Digitaria sanguinalis, post-emergence, 16 g ai/ha, postemergence, 0 is no effect, 100 is complete control, read-out: Plant response rating (0 to 100), Crabgrass, Large",10%
same,pest or weed control at 125 g/ha,"large (Lg) crabgrass; Digitaria sanguinalis, post-emergence, 125 g ai/ha, postemergence, visual rating, scale 0 to 100 (0 no effect, 100 complete control), read-out: Plant response rating, Crabgrass, Large",15%
same,pest or weed control at 62 g/ha,"large (Lg) crabgrass; Digitaria sanguinalis, post-emergence, Postemergence, 62 g ai/ha, scale 0 to 100 (0 no effect, 100 complete control), read-out: Plant response rating, Crabgrass, Large",15%
same,pest or weed control at 16 g/ha,"waterhemp; Amaranthus tuberculatus, pre-emergence, 16 g ai/ha, scale 0 to 100 (0 no effect, 100 complete control), read-out: Waterhemp plant response rating",100%
same,pest or weed control at 62 g/ha,"waterhemp; Amaranthus tuberculatus, pre-emergence, 62 g ai/ha, scale 0 (no effect) to 100 (complete control), read-out: Waterhemp plant response rating",100%
same,pest or weed control at 125 g/ha,"waterhemp; Amaranthus tuberculatus, pre-emergence, 125 g ai/ha, scale 0 (no effect) to 100 (complete control), read-out: Waterhemp plant response rating",100%
same,plant injury at 16 g/ha,"soybean; Glycine max, pre-emergence, 16 g ai/ha, scale 0 to 100 (0 no effect, 100 complete control), read-out: Soybean plant response rating",20%
same,plant injury at 62 g/ha,"soybean; Glycine max, pre-emergence, 62 g ai/ha, scale 0 (no effect) to 100 (complete control), read-out: Soybean plant response rating",90%
same,plant injury at 125 g/ha,"soybean; Glycine max, pre-emergence, 125 g ai/ha, scale 0 (no effect) to 100 (complete control), read-out: Soybean plant response rating",90%
same,pest or weed control at 16 g/ha,"morningglory; Ipomoea, pre-emergence, 16 g ai/ha, scale 0 to 100 (0 no effect, 100 complete control), read-out: Morningglory plant response rating",0%
same,pest or weed control at 62 g/ha,"morningglory; Ipomoea, pre-emergence, 62 g ai/ha, scale 0 (no effect) to 100 (complete control), read-out: Morningglory plant response rating",10%
same,pest or weed control at 125 g/ha,"morningglory; Ipomoea, pre-emergence, 125 g ai/ha, scale 0 (no effect) to 100 (complete control), read-out: Morningglory plant response rating",35%
same,pest or weed control at 16 g/ha,"ragweed; Ambrosia artemisiifolia, post-emergence, 16 g ai/ha, postemergence, 0 is no effect, 100 is complete control, read-out: Plant response rating (0 to 100), Ragweed",40%
same,pest or weed control at 125 g/ha,"ragweed; Ambrosia artemisiifolia, post-emergence, 125 g ai/ha, postemergence, visual rating, scale 0 to 100 (0 no effect, 100 complete control), read-out: Plant response rating, Ragweed",45%
same,pest or weed control at 62 g/ha,"ragweed; Ambrosia artemisiifolia, post-emergence, Postemergence, 62 g ai/ha, scale 0 to 100 (0 no effect, 100 complete control), read-out: Plant response rating, Ragweed",40%
same,pest or weed control at 125 g/ha,"pigweed [4]; Amaranthus retroflexus, pre-emergence, 125 g ai/ha, read-out: Plant response rating, Pigweed",90%
same,pest or weed control at 500 g/ha,"pigweed [4]; Amaranthus retroflexus, pre-emergence, 240 h, 500 g ai/ha, read-out: Pigweed plant response rating",100%
same,pest or weed control at 250 g/ha,"barnyardgrass [5]; Echinochloa crus-galli, read-out: Plant response rating, Barnyardgrass",0%
same,plant injury at 250 g/ha,"rice; Oryza sativa, read-out: Plant response rating, Rice",0%
CCCOc1cnn(-c2c(C#N)cccc2Oc2ncc(Cl)cn2)c1 [Compound 150],Barnyardgrass plant response rating,"barnyardgrass [1]; 16 g ai/ha, preemergence, scale 0 to 100 (0 no effect, 100 complete control)",5
same,Barnyardgrass plant response rating,"barnyardgrass [1]; 62 g ai/ha, preemergence, scale 0 (no effect) to 100 (complete control)",65
same,Barnyardgrass plant response rating,"barnyardgrass [1]; 125 g ai/ha, preemergence, scale 0 (no effect) to 100 (complete control)",80
same,"Plant response rating, Barnyardgrass","barnyardgrass [1]; Preemergence, 31 g ai/ha, scale 0 to 100, 0 no effect, 100 complete control",20
same,Barnyardgrass plant response rating,barnyardgrass [2]; 125 g ai/ha,100
same,Pigweed plant response rating,pigweed [3]; 125 g ai/ha,100
same,"Plant response rating, Pigweed",pigweed [3]; 500 g ai/ha,100
same,"Plant response rating (0 to 100), Blackgrass",blackgrass; [6],5
same,Blackgrass plant response rating,blackgrass; [7],5
same,"Plant response rating, Blackgrass",blackgrass; [8],10
same,"Plant response rating, Blackgrass",blackgrass; [9],10
same,Wheat plant response rating,"wheat, winter; [10]",0
same,Wheat plant response rating,"wheat, winter; [11]",5
same,Wheat plant response rating,"wheat, winter; [12]",5
same,"Plant response rating (0 to 100), Crabgrass, Large",large (Lg) crabgrass; [6],5
same,"Crabgrass, Large plant response rating",large (Lg) crabgrass; [7],5
same,"Plant response rating, Crabgrass, Large",large (Lg) crabgrass; [8],10
same,"Plant response rating, Crabgrass, Large",large (Lg) crabgrass; [9],5
same,Waterhemp plant response rating,waterhemp; [10],20
same,Waterhemp plant response rating,waterhemp; [11],98
same,Waterhemp plant response rating,waterhemp; [12],98
same,Soybean plant response rating,soybean; [10],0
same,Soybean plant response rating,soybean; [11],45
same,Soybean plant response rating,soybean; [12],90
same,Morningglory plant response rating,morningglory; [10],0
same,Morningglory plant response rating,morningglory; [11],45
same,Morningglory plant response rating,morningglory; [12],75
same,"Plant response rating (0 to 100), Ragweed",ragweed; [6],30
same,Ragweed plant response rating,ragweed; [7],30
same,"Plant response rating, Ragweed",ragweed; [8],65
same,"Plant response rating, Ragweed",ragweed; [9],35
same,"Plant response rating, Pigweed",pigweed [4]; 125 g ai/ha,100
same,Pigweed plant response rating,pigweed [4]; 500 g ai/ha,100
same,"Plant response rating, Barnyardgrass",barnyardgrass [5],0
same,"Plant response rating, Rice",rice,0
